Measured values taken from PubChem BioAssay AID1963986 (Molecular Pharmacology Branch, DTP, NCI, 2024).
Several values for one entry are separate records, joined by “and”; a condition that tells them apart may be missing. Equal values may be shown once. Each block holds one molecule with its values, some of them ahead of it.

Tested on: 171881-019-R-J1-PDC tumor spheroid viability
Test: Anticancer human tumor 171881-019-R-J1-PDC patient-derived invasive breast carcinoma cell line growth inhibition [PI3K]
Conditions: spheroids with HUVEC and MSC; for viability, T/C: stronger effect = lower value
Outline: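 Agents were dosed from a top concentration near clinical Cmax (otherwise 10 microM) in half-log decrements, alone or combined with PI3K inhibitors. The spheroids contain tumor cells plus endothelial (HUVEC) and MSC stroma; viability is measured.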

[1] = curve of first compound, second compound 0.00316 µM
[2] = curve of first compound, second compound 0.01 µM
[3] = curve of first compound, second compound 0.0316 µM
[4] = curve of first compound, second compound 0.1 µM
[5] = curve of first compound, second compound 0.316 µM
[6] = curve of first compound, second compound 1 µM
[7] = second compound 0.00316 µM, first compound 0.0316 µM
[8] = second compound 0.00316 µM, first compound 0.1 µM
[9] = second compound 0.01 µM, first compound 0.0316 µM
[10] = second compound 0.01 µM, first compound 0.1 µM
[11] = second compound 0.0316 µM, first compound 0.0316 µM
[12] = second compound 0.0316 µM, first compound 0.1 µM
[13] = second compound 0.1 µM, first compound 0.0316 µM
[14] = second compound 0.1 µM, first compound 0.1 µM
[15] = second compound 0.316 µM, first compound 0.0316 µM
[16] = second compound 0.316 µM, first compound 0.1 µM
[17] = second compound 1 µM, first compound 0.0316 µM
[18] = second compound 1 µM, first compound 0.1 µM
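Further: spheroids exposed to compound for 7 days before viability read.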
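Wherever viability, T/C is given: 100% = DMSO vehicle-treated spheroids.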

IC50 (compound alone, run of 05/09/2023): > 10000 nM
SMILES: CC(Nc1ncnc2nc[nH]c12)c1cc2cccc(Cl)c2c(=O)n1-c1ccccc1 (stereo not drawn)
viability, T/C (compound 0.0316 µM): 90% [middle of 8 runs] | viability, T/C (compound 0.1 µM): 97.5% [middle of 8 runs] | viability, T/C (compound 0.316 µM): 99.2% [middle of 8 runs] | viability, T/C (compound 1 µM): 100% [middle of 8 runs] | viability, T/C (compound 3.16 µM): 87.8% [middle of 8 runs] | viability, T/C (compound 10 µM): 59.8% [middle of 8 runs]

IC50 (curve of compound): 121 nM and 127 nM and 155 nM
SMILES: Cn1ncc(Cl)c1-c1cc(C(=O)NC(CN)Cc2cccc(F)c2)sc1Cl (stereo not drawn)
viability, T/C (compound 0.0316 µM): 80.2% [middle of 4 runs] | viability, T/C (compound 0.1 µM): 55.6% [middle of 4 runs] | viability, T/C (compound 0.316 µM): 34% [middle of 4 runs] | viability, T/C (compound 1 µM): 21.5% [middle of 4 runs] | viability, T/C (compound 3.16 µM): 13.1% [middle of 4 runs] | viability, T/C (compound 10 µM): 4.48% [middle of 4 runs]

IC50 [1]: 3730 nM | IC50 [2]: 2720 nM | IC50 [3]: 1590 nM | IC50 [4]: < 31.6 nM | IC50 [5]: < 31.6 nM | IC50 [6]: < 31.6 nM
SMILES: CC1(C)CCC(CN2CCN(c3ccc(C(=O)NS(=O)(=O)c4ccc(NCC5CCOCC5)c([N+](=O)[O-])c4)c(Oc4cnc5[nH]ccc5c4)c3)CC2)=C(c2ccc(Cl)cc2)C1 + CC(Nc1ccc2c(c1)OCCn1cc(N3C(=O)OCC3C(F)F)nc1-2)C(N)=O
viability, T/C [7]: 83% | viability, T/C [8]: 73.7% | viability, T/C (second compound 0.00316 µM, first compound 0.316 µM): 91.5% | viability, T/C (second compound 0.00316 µM, first compound 1 µM): 88.1% | viability, T/C (second compound 0.00316 µM, first compound 3.16 µM): 55.9% | viability, T/C (second compound 0.00316 µM, first compound 10 µM): 15% | viability, T/C [9]: 79.2% | viability, T/C [10]: 87.3% | viability, T/C (second compound 0.01 µM, first compound 0.316 µM): 76.8% | viability, T/C (second compound 0.01 µM, first compound 1 µM): 72.5% | viability, T/C (second compound 0.01 µM, first compound 3.16 µM): 46.5% | viability, T/C (second compound 0.01 µM, first compound 10 µM): 13.9% | viability, T/C [11]: 55.9% | viability, T/C [12]: 56.8% | viability, T/C (second compound 0.0316 µM, first compound 0.316 µM): 61.6% | viability, T/C (second compound 0.0316 µM, first compound 1 µM): 55.3% | viability, T/C (second compound 0.0316 µM, first compound 3.16 µM): 41.2% | viability, T/C (second compound 0.0316 µM, first compound 10 µM): 10.3% | viability, T/C [13]: 41.6% | viability, T/C [14]: 41.2% | viability, T/C (second compound 0.1 µM, first compound 0.316 µM): 40.6% | viability, T/C (second compound 0.1 µM, first compound 1 µM): 43.4% | viability, T/C (second compound 0.1 µM, first compound 3.16 µM): 36.5% | viability, T/C (second compound 0.1 µM, first compound 10 µM): 7.86% | viability, T/C [15]: 28.6% | viability, T/C [16]: 27.1% | viability, T/C (second compound 0.316 µM, first compound 0.316 µM): 28.5% | viability, T/C (second compound 0.316 µM, first compound 1 µM): 28.3% | viability, T/C (second compound 0.316 µM, first compound 3.16 µM): 29.5% | viability, T/C (second compound 0.316 µM, first compound 10 µM): 5% | viability, T/C [17]: 20.9% | viability, T/C [18]: 20.9% | viability, T/C (second compound 1 µM, first compound 0.316 µM): 22% | viability, T/C (second compound 1 µM, first compound 1 µM): 23.4% | viability, T/C (second compound 1 µM, first compound 3.16 µM): 22% | viability, T/C (second compound 1 µM, first compound 10 µM): 6.08%

IC50 [1]: 9.16 nM | IC50 [2]: 4.01 nM | IC50 [3]: 1.36 nM | IC50 [4]: < 0.316 nM | IC50 [5]: < 0.316 nM | IC50 [6]: < 0.316 nM
SMILES: CC(C)n1nc(-c2ccc3oc(N)nc3c2)c2c(N)ncnc21 + CC(Nc1ccc2c(c1)OCCn1cc(N3C(=O)OCC3C(F)F)nc1-2)C(N)=O
viability, T/C (second compound 0.00316 µM, first compound 0.000316 µM): 80.2% | viability, T/C (second compound 0.00316 µM, first compound 0.001 µM): 76.2% | viability, T/C (second compound 0.00316 µM, first compound 0.00316 µM): 69.5% | viability, T/C (second compound 0.00316 µM, first compound 0.01 µM): 49.4% | viability, T/C [7]: 17.4% | viability, T/C [8]: 4.49% | viability, T/C (second compound 0.01 µM, first compound 0.000316 µM): 71.7% | viability, T/C (second compound 0.01 µM, first compound 0.001 µM): 69.9% | viability, T/C (second compound 0.01 µM, first compound 0.00316 µM): 49.7% | viability, T/C (second compound 0.01 µM, first compound 0.01 µM): 38.5% | viability, T/C [9]: 12.6% | viability, T/C [10]: 4.27% | viability, T/C (second compound 0.0316 µM, first compound 0.000316 µM): 58.5% | viability, T/C (second compound 0.0316 µM, first compound 0.001 µM): 50.9% | viability, T/C (second compound 0.0316 µM, first compound 0.00316 µM): 42.9% | viability, T/C (second compound 0.0316 µM, first compound 0.01 µM): 25.3% | viability, T/C [11]: 8.97% | viability, T/C [12]: 3.7% | viability, T/C (second compound 0.1 µM, first compound 0.000316 µM): 43.2% | viability, T/C (second compound 0.1 µM, first compound 0.001 µM): 38.6% | viability, T/C (second compound 0.1 µM, first compound 0.00316 µM): 28.8% | viability, T/C (second compound 0.1 µM, first compound 0.01 µM): 13.3% | viability, T/C [13]: 6.55% | viability, T/C [14]: 3.2% | viability, T/C (second compound 0.316 µM, first compound 0.000316 µM): 26.6% | viability, T/C (second compound 0.316 µM, first compound 0.001 µM): 25.2% | viability, T/C (second compound 0.316 µM, first compound 0.00316 µM): 17.7% | viability, T/C (second compound 0.316 µM, first compound 0.01 µM): 8.83% | viability, T/C [15]: 4.95% | viability, T/C [16]: 2.96% | viability, T/C (second compound 1 µM, first compound 0.000316 µM): 18.8% | viability, T/C (second compound 1 µM, first compound 0.001 µM): 19.5% | viability, T/C (second compound 1 µM, first compound 0.00316 µM): 12.8% | viability, T/C (second compound 1 µM, first compound 0.01 µM): 6.3% | viability, T/C [17]: 4.24% | viability, T/C [18]: 2.61%
